# Source: patent US20200345746A1, “Oxazine Derivative for Use in the Prevention of Alzheimer's Disease in at Risk Patents” (Novartis AG, priority 2016, published 2020)
# Legend:
# [1] = system: Aβ42; assay: 3-month dose-ranging study: Aβ42 in CSF; assay type: in vivo, human; details: for Aβ42 % change from baseline, Mean (SD) / Aβ42 % change from baseline, Median: CSF, 3 months
# Description: This study is listed in ClinicalTrials.gov under the NCT02576639 Identifier code.
# The primary purpose of this study was to expand on previous safety and tolerability data obtained over 2-week and 4-week duration in the first in human study and thereby allow initiation of future long-term efficacy trials in subjects at risk of AD. In addition, data relevant for Pharmacokinetic/Pharmacodynamic modeling was obtained in order to support dose selection decisions for future efficacy studies.
# In the completed first-in-human and 3-month dose-ranging safety and tolerability clinical studies described in Examples 5 and 6, Aβ concentrations in CSF were obtained by means of lumbar punctures before the first dose (baseline) and respectively after 2 weeks and 3 months of multiple dosing. ApoE4 genotype also was obtained in the subjects who consented. The percent change from baseline in Aβ40 and Aβ42 concentrations was calculated in subjects who took the study treatment and had no major protocol deviation with potential impact on the evaluation of the pharmacodynamic effect. Tables 18 to 21 below provide summary statistics of the percent change from baseline by treatment group and ApoE genotype (E4 heterozygotes versus E4 non-carriers). Only one subject with CSF data was E4 homozygote (from the 3-month dose-ranging safety and tolerability study).
# [2] = system: GFAP positive astrocytes; assay: Activated astrocytes in APP23 mice (GFAP positive area); assay type: in vivo, mouse; details: for Distal GFAP+ area / Proximal GFAP+ area / Total GFAP+ area / non-plaque associated GFAP+ area / plaque-associated GFAP+ area: normalized to total area (100 * mean ± SEM)
# Description: Amyloid plaques were stained using a rabbit anti-Aβ primary antibody which recognizes the C-terminal part of the amyloid peptide (the antibody was raised as described in Schrader-Fischer G, Paganetti P A, 1996; Schrader-Fischer G et al., 1997). Activated astrocytes were detected using a commercial rabbit anti-GFAP (reference Z0334 from Dako Schweiz GmbH, Baar, Switzerland).
# All study animals were used and brain tissue sections of 3 micrometers were freshly cut and collected on SuperFrost+ slides. The tissues sections were de-paraffinized and rehydrated under solvent-free conditions (EZprep solution) followed by antigen retrieval (demasking) performed by heat retrieval cycles for 32 min in an EDTA based buffer (CC1 solution). Subsequently, slides were blocked for 4 min using the DISCOVERY Inhibitor (reference 07017944001 (Roche)). The primary antibody diluted at 1/20,000 in antibody diluent was manually added on tissue sections and incubated for 1h at room temperature. A short post-fixation (glutaraldehyde at 0.05%) was performed before applying the multimer UltraMap-anti Rabbit HRP ready to use antibody (reference 05269717001) for 16 min.
# Detection was performed using the DISCOVERY FITC® following the manufacturer's recommendations. Slides were then heat denaturated at 92° C. for 20 min before a manual application of the second primary antibody (anti-GFAP diluted at 1/2,000) and incubated for 1 h. UltraMap-anti-Rabbit HRP antibody was used again for 20 min to detect GFAP in combination with the DISCOVERY Rhodamine kit (reference 07259883001).
# The slides were washed and mounted using Prolong® Gold antifade reagent (reference P36931, ThermoFisher, Switzerland) and further scanned with the Hamamatsu slide scanner instrument (NanoZoomer 2.0 HT, scanning software NDP-Scan Vers. 2.5, Hamamatsu Photonics France, Swiss Office, Solothurn, Switzerland) at the 40× objective. The scanning settings were as follows: the exposure time with the DAPI filter was set at 57 ms as well as for the FITC filter. The exposure time for the TRITC filter (detection of Rhodamine) was set at 14.2 ms.
# For the beta-amyloid plaque and neuroinflammation analysis, the following sequence of steps was performed: • Slides were scanned with Hamamatsu Nanozoomer at 40× magnification. For each fluorescence labelling (DAPI, FITC and TRITC), a separate image was created • Manually outline ROIs (regions of interest) for defining cortex in brain sections for Aβ plaque assessment on the green FITC channel image, then use the resulting outline also for the other two channel images (copy resulting xml files) • Run the in-house developed ImageScope (V12.1.0.5029, Aperio Inc., USA) plug-in for creation and export of *.tif image tiles (at 10× magnification) for each of the 3 fluorescence channels
# Image Batch Processing: • Obtain the combined true color image (DAPI, FITC, TRITC) for each section through accessing each individual fluorescence channel image • Segmentation of valid sample (within outlined ROI) from black unstained background • Apply adaptive thresholding technique for segmentation of objects in green channel image
# (FITC-labeled Aβ plaques) • Separation of touching objects for correct subsequent individual object analysis after elimination of too small debris showing signal in the green (FITC) channel • Segmentation of TRITC-labeled objects in red channel (specific for GFAP or Iba1 staining indicating astrocytes or microglia) through morphological tophat transformation and thresholding • Feature based object classification […]
smiles,measurement,setting,value
"C[C@@]1(c2nc(NC(=O)c3ncc(C(F)(F)F)cc3Cl)ccc2F)CO[C@@](C)(C(F)(F)F)C(N)=N1 [Compound 1, N-(6-((3R,6R)-5-amino-3,6-dimethyl-6-(trifluoromethyl)-3,6-dihydro-2H-1,4-oxazin-3-yl)-5-fluoropyridin-2-yl)-3-chloro-5-(trifluoromethyl)picolinamide]","Aβ42 % change from baseline, Mean (SD)","[1]; 2 mg, E4 heterozygotes",−23 (9) %
same,"Aβ42 % change from baseline, Median","[1]; 2 mg, E4 heterozygotes",−23%
same,"Aβ42 % change from baseline, Mean (SD)","[1]; 2 mg, E4 non-carriers",−24 (9) %
same,"Aβ42 % change from baseline, Median","[1]; 2 mg, E4 non-carriers",−21%
same,"Aβ42 % change from baseline, Mean (SD)","[1]; 10 mg, E4 heterozygotes",−66 (7) %
same,"Aβ42 % change from baseline, Median","[1]; 10 mg, E4 heterozygotes",−63%
same,"Aβ42 % change from baseline, Mean (SD)","[1]; 10 mg, E4 non-carriers",−65 (5) %
same,"Aβ42 % change from baseline, Median","[1]; 10 mg, E4 non-carriers",−66%
same,"Aβ42 % change from baseline, Mean (SD)","[1]; 35 mg, E4 heterozygotes",−83 (5) %
same,"Aβ42 % change from baseline, Median","[1]; 35 mg, E4 heterozygotes",−85%
same,"Aβ42 % change from baseline, Mean (SD)","[1]; 35 mg, E4 non-carriers",−81 (6) %
same,"Aβ42 % change from baseline, Median","[1]; 35 mg, E4 non-carriers",−83%
same,"Aβ42 % change from baseline, Mean (SD)","[1]; 85 mg, E4 heterozygotes",−88 (2) %
same,"Aβ42 % change from baseline, Median","[1]; 85 mg, E4 heterozygotes",−88%
same,"Aβ42 % change from baseline, Mean (SD)","[1]; 85 mg, E4 non-carriers",−90 (2) %
same,"Aβ42 % change from baseline, Median","[1]; 85 mg, E4 non-carriers",−90%
same,"Aβ42 in CSF percent change from baseline, Difference (90% CI) Cmpd 1-Placebo","[1]; month 3, 2 mg QD","−21.24 (−24.28, −18.21) %"
same,"Aβ42 in CSF percent change from baseline, LSmean (SE)","[1]; month 3, 2 mg QD",−24.00 (1.277) %
same,"Aβ42 in CSF percent change from baseline, Difference (90% CI) Cmpd 1-Placebo","[1]; month 3, 10 mg QD","−61.39 (−64.47, −58.31) %"
same,"Aβ42 in CSF percent change from baseline, LSmean (SE)","[1]; month 3, 10 mg QD",−64.15 (1.308) %
same,"Aβ42 in CSF percent change from baseline, Difference (90% CI) Cmpd 1-Placebo","[1]; month 3, 35 mg QD","−79.73 (−82.73, −76.73) %"
same,"Aβ42 in CSF percent change from baseline, LSmean (SE)","[1]; month 3, 35 mg QD",−82.49 (1.250) %
same,"Aβ42 in CSF percent change from baseline, Difference (90% CI) Cmpd 1-Placebo","[1]; month 3, 85 mg QD","−86.62 (−89.76, −83.49) %"
same,"Aβ42 in CSF percent change from baseline, LSmean (SE)","[1]; month 3, 85 mg QD",−89.38 (1.348) %
same,Distal GFAP+ area,"[2]; APP23, 0.03 g/kg food",12.16 ± 1.52
same,Proximal GFAP+ area,"[2]; APP23, 0.03 g/kg food",4.11 ± 0.86
same,Total GFAP+ area,"[2]; APP23, 0.03 g/kg food",18.56 ± 2.59
same,non-plaque associated GFAP+ area,"[2]; APP23, 0.03 g/kg food",16.27 ± 2.19
same,plaque-associated GFAP+ area,"[2]; APP23, 0.03 g/kg food",2.29 ± 0.47
same,"Distal GFAP+ area, change vs vehicle","[2]; APP23, 0.03 g/kg vs vehicle",−8.9%
same,"Proximal GFAP+ area, change vs vehicle","[2]; APP23, 0.03 g/kg vs vehicle",−28.0%
same,"Total GFAP+ area, change vs vehicle","[2]; APP23, 0.03 g/kg vs vehicle",−16.9%
same,"non-plaque associated GFAP+ area, change vs vehicle","[2]; APP23, 0.03 g/kg vs vehicle",−14.6%
same,"plaque-associated GFAP+ area, change vs vehicle","[2]; APP23, 0.03 g/kg vs vehicle",−29.8%
same,Distal GFAP+ area,"[2]; APP23, 0.3 g/kg food",9.72 ± 1.65
same,Proximal GFAP+ area,"[2]; APP23, 0.3 g/kg food",1.91 ± 0.51
same,Total GFAP+ area,"[2]; APP23, 0.3 g/kg food",12.79 ± 2.33
same,non-plaque associated GFAP+ area,"[2]; APP23, 0.3 g/kg food",11.63 ± 2.06
same,plaque-associated GFAP+ area,"[2]; APP23, 0.3 g/kg food",1.16 ± 0.32
same,"Distal GFAP+ area, change vs vehicle","[2]; APP23, 0.3 g/kg vs vehicle",−27.2%
same,"Proximal GFAP+ area, change vs vehicle","[2]; APP23, 0.3 g/kg vs vehicle",−66.6%
same,"Total GFAP+ area, change vs vehicle","[2]; APP23, 0.3 g/kg vs vehicle",−42.7%
same,"non-plaque associated GFAP+ area, change vs vehicle","[2]; APP23, 0.3 g/kg vs vehicle",−39.0%
same,"plaque-associated GFAP+ area, change vs vehicle","[2]; APP23, 0.3 g/kg vs vehicle",−64.3%
